Test results from US20230279020A9, “CARM1 INHIBITORS AND USES THEREOF” (Epizyme, Inc., priority 2013, published 2023).
pIC50: −log10 of the molar value.

target: Human CARM1 (PRMT4) (Homo sapiens (Human), UniProt Q86X55); assay: CARM1 enzyme assay on peptide substrate (3H-SAM Flashplate); conditions: Biochemical potencies, classification codes; read-out: Biochem IC50
Sequence (Q86X55 other isoform, or with tags, fused parts or gaps isoform Q86X55-1): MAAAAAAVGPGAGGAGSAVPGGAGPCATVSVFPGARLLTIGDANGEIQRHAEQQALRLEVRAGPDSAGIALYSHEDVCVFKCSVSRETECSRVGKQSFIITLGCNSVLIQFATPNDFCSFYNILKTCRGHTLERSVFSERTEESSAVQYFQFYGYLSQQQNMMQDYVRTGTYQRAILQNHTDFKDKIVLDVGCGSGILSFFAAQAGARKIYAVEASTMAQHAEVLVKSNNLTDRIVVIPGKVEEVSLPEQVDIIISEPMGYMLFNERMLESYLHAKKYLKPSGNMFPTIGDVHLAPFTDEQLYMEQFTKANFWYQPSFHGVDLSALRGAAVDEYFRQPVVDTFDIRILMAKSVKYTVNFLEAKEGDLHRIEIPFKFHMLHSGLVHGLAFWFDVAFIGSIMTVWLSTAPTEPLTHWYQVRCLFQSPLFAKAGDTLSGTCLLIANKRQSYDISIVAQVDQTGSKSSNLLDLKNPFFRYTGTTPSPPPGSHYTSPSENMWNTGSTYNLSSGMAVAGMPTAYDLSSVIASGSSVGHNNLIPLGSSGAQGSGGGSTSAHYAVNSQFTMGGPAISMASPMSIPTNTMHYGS

Compound | pIC50
CNC[C@@H](O)COc1ccc(Cl)c(-c2nc(-c3c(C)noc3C)c(C)c(N3CC4(CCOC4)C3)n2)c1 [Example 120-3] | > 7.00
CNCC(O)COc1cccc(-c2nc(-c3c(C)noc3C)c(C)c(N3CCN(C(=O)OCCF)CC3)n2)c1 (centres unmarked) [Example 121-1a] | > 7.00
CNC[C@@H](O)COc1ccc(Cl)c(-c2nc(-c3c(C)noc3C)c(C)c(N3CC4(CCCO4)C3)n2)c1 [Example 121-3] | > 7.00
CNC[C@@H](O)COc1ccc(Cl)c(-c2nc(-c3c(C)noc3C)c(C)c(N3CCc4nn(C)cc4C3)n2)c1 [Example 122-3] | > 7.00
CNCC(O)COc1cccc(-c2nc(-c3c(C)noc3C)c(C)c(N3CCO[C@H](CNC)C3)n2)c1 (some centres unmarked) [Example 124-1a] | > 7.00
CNCC(O)COc1ccc(C)c(-c2nc(NC3CCOC(C)C3)c(C)c(-c3c(C)noc3C)n2)c1 (centres unmarked) [Example 124-3] | > 7.00
CNCC(O)COc1cccc(-c2nc(-c3c(C)noc3C)c(C)c(N3CCO[C@H](CO)C3)n2)c1 (some centres unmarked) [Example 125-1a] | > 7.00
CNCC(O)COc1ccc(C)c(-c2nc(NC3CCN(C(=O)OC)CC3)c(C)c(-c3c(C)noc3C)n2)c1 (centres unmarked) [Example 125-3] | > 7.00
CNCC(O)COc1cccc(-c2nc(-c3c(C)noc3C)c(C)c(N3CCO[C@H](CN(C)S(C)(=O)=O)C3)n2)c1 (some centres unmarked) [Example 126-1a] | > 7.00
CNC[C@@H](O)COc1ccc(Cl)c(-c2nc(OC[C@@H]3CCOC3)c(C)c(-c3c(C)noc3C)n2)c1 [Example 126-3] | > 7.00
CNCC(O)COc1cccc(-c2nc(-c3c(C)noc3C)c(C)c(N3CCO[C@H](CN(C)C(=O)OC)C3)n2)c1 (some centres unmarked) [Example 127-1a] | > 7.00
CNC[C@@H](O)COc1ccc(Cl)c(-c2nc(NC3CCOCC3)c(C)c(-c3c(C)noc3C)n2)c1 [Example 127-3] | > 7.00
CNC[C@@H](O)COc1ccc(Cl)c(-c2nc(N[C@H]3CCO[C@@H](C)C3)c(C)c(-c3c(C)noc3C)n2)c1 [Example 128-3] | > 7.00
CCOC(=O)N1CC[C@@H](Nc2nc(-c3cc(OC[C@H](O)CNC)ccc3Cl)nc(-c3c(C)noc3C)c2Cl)C1 [Example 129-3] | > 7.00
CNC[C@@H](O)COc1ccc(Cl)c(-c2nc(NC[C@H]3CCCO3)c(C)c(-c3c(C)noc3C)n2)c1 [Example 130-3] | > 7.00
CNCC(O)COc1cccc(-c2nc(-c3c(C)noc3C)cc(N3CCNC(C(F)(F)F)C3)n2)c1 (centres unmarked) [Example 131-1a] | > 7.00
CNC[C@@H](O)COc1ccc(Cl)c(-c2nc(NC[C@@H]3CCCO3)c(C)c(-c3c(C)noc3C)n2)c1 [Example 131-3] | > 7.00
CNCC(O)COc1cccc(-c2nc(-c3c(C)noc3C)cc(N3CCN(CC(F)(F)F)CC3)n2)c1 (centres unmarked) [Example 132-1a] | > 7.00
CNC[C@@H](O)COc1ccc(Cl)c(-c2nc(N[C@@H]3CCO[C@H](C)C3)c(C)c(-c3c(C)noc3C)n2)c1 [Example 132-3] | > 7.00
CNCC(O)COc1cccc(-c2nc(-c3c(C)noc3C)cc(N3CCN(C(=O)C4CC4)CC3)n2)c1 (centres unmarked) [Example 133-1a] | > 7.00
CCOC(=O)N1CCC[C@@H]1COc1nc(-c2cc(OC[C@H](O)CNC)ccc2Cl)nc(-c2c(C)noc2C)c1C [Example 133-3] | > 7.00
CNCC(O)COc1cccc(-c2nc(-c3c(C)noc3C)c(C)c(N3CCN(C(=O)OCCOC)CC3)n2)c1 (centres unmarked) [Example 134-1a] | > 7.00

Compound | pIC50
CNC[C@@H](O)COc1ccc(Cl)c(-c2nc(NC[C@H]3COCCN3C(=O)OC(C)C)c(C)c(-c3c(C)noc3C)n2)c1 [Example 134-3] | > 7.00
CNCC(O)COc1cccc(-c2nc(N[C@H]3CC[C@H](O)C3)c(C)c(-c3c(C)noc3C)n2)c1 (some centres unmarked) [Example 135-1a] | > 7.00
CNC[C@@H](O)COc1ccc(Cl)c(-c2nc(N[C@@H]3CCN(C(=O)OC)[C@H](C)C3)c(C)c(-c3c(C)noc3C)n2)c1 [Example 135-3] | > 7.00
CNCC(O)COc1cc(NC)cc(-c2nc(NC3CCOCC3)c(C)c(-c3c(C)noc3C)n2)c1 (centres unmarked) [Example 136-1a] | > 7.00
CCOC(=O)N1CCC[C@@H]1CCNc1nc(-c2cc(OC[C@H](O)CNC)ccc2Cl)nc(-c2c(C)noc2C)c1C [Example 136-3] | > 7.00
CNCC(O)COc1ccc(Cl)c(-c2nc(NC3(C)CCOCC3)c(Cl)c(-c3c(C)noc3C)n2)c1 (centres unmarked) [Example 137-1a] | > 7.00
CCOC(=O)N1CCC[C@H]1CCNc1nc(-c2cc(OC[C@H](O)CNC)ccc2Cl)nc(-c2c(C)noc2C)c1C [Example 137-3] | > 7.00
CNC[C@H](O)COc1ccc(Cl)c(-c2nc(-c3c(C)noc3C)c(C)c(N3CCC4(CCN(C5CC5)C4)C3)n2)c1 (some centres unmarked) [Example 138-1a] | > 7.00
CNC[C@@H](O)COc1ccc(Cl)c(-c2nc(-c3c(C)noc3C)c(C)c(N3CCC4(CCN(C5CC5)C4)C3)n2)c1 (some centres unmarked) [Example 138-3] | > 7.00
CNCC(O)COc1cccc(-c2nc(-c3c(C)noc3C)cc(N3CCN(CCOC)CC3)n2)c1 (centres unmarked) [Example 139-1a] | > 7.00
CNC[C@@H](O)COc1ccc(Cl)c(-c2nc(N[C@@H]3CCN(C4CC4)[C@H](C)C3)c(C)c(-c3c(C)noc3C)n2)c1 [Example 139-3] | > 7.00
CNCC(O)COc1cccc(-c2nc(NCC3(N(C)C)CCOCC3)c(C)c(-c3c(C)noc3C)n2)c1 (centres unmarked) [Example 140-1a] | > 7.00
CNC[C@@H](O)COc1ccc(Cl)c(-c2nc(-c3c(C)noc3C)c(C)c(N3Cc4cnn(C)c4C3)n2)c1 [Example 140-3] | > 7.00
CCC1(CNc2nc(-c3cccc(OCC(O)CNC)c3)nc(-c3c(C)noc3C)c2C)CCOCC1 (centres unmarked) [Example 141-1a] | > 7.00
CNC[C@@H](O)COc1ccc(Cl)c(-c2nc(-c3c(C)noc3C)c(C)c(N3CCc4nc(C)sc4C3)n2)c1 [Example 141-3] | > 7.00
CNCC(O)COc1cccc(-c2nc(NCC3CCOCC3)c(Cl)c(-c3c(C)noc3C)n2)c1 (centres unmarked) [Example 142-1a] | > 7.00
CNC[C@@H](O)COc1ccc(Cl)c(-c2nc(-c3c(C)noc3C)c(C)c(N3Cc4nccnc4C3)n2)c1 [Example 142-3] | > 7.00
CNCC(O)COc1cccc(-c2nc(NCC3CCOCC3)c(F)c(-c3c(C)noc3C)n2)c1 (centres unmarked) [Example 143-1a] | > 7.00
CNC[C@@H](O)COc1ccc(Cl)c(-c2nc(N[C@H]3C[C@H](OC)C3)c(C)c(-c3c(C)noc3C)n2)c1 [Example 143-3] | > 7.00
CNCC(O)COc1cccc(-c2nc(-c3c(C)noc3C)cc(N3CCN(CC(F)(F)F)[C@H](C)C3)n2)c1 (some centres unmarked) [Example 144-1a] | > 7.00
CNC[C@@H](O)COc1ccc(Cl)c(-c2nc(N[C@H]3C[C@@H](OC)C3)c(C)c(-c3c(C)noc3C)n2)c1 [Example 144-3] | > 7.00
CNCC(O)COc1cccc(-c2nc(-c3c(C)noc3C)cc(N3CCN(CCF)[C@H](C)C3)n2)c1 (some centres unmarked) [Example 145-1a] | > 7.00

Compound | pIC50
CNCC(O)COc1cccc(-c2nc(NC3CCOCC3)c(C)c(-c3c(C)noc3CO)n2)c1 (centres unmarked) [Example 145-3] | > 7.00
CNCC(O)COc1cccc(-c2nc(-c3c(C)noc3C)cc(N3CCN(C(=O)N(C)C)[C@H](C)C3)n2)c1 (some centres unmarked) [Example 146-1a] | > 7.00
CNC[C@@H](O)COc1ccc(Cl)c(-c2nc(NC3CC4(C3)CN(C(=O)OC)C4)c(C)c(-c3c(C)noc3C)n2)c1 [Example 146-3] | > 7.00
CNCC(O)COc1cccc(-c2nc(-c3c(C)noc3C)cc(N3CCN(S(C)(=O)=O)[C@H](C)C3)n2)c1 (some centres unmarked) [Example 147-1a] | > 7.00
CNC[C@@H](O)COc1ccc(Cl)c(-c2nc(N[C@H]3CCN(C)C[C@H]3F)c(C)c(-c3c(C)noc3C)n2)c1 [Example 147-3] | > 7.00
CNCC(O)COc1cccc(-c2nc(-c3c(C)noc3C)c(C)c(N3CCO[C@@H](CN(C)C)C3)n2)c1 (some centres unmarked) [Example 148-1a] | > 7.00
CNC[C@@H](O)COc1ccc(Cl)c(-c2nc(N[C@H]3CO[C@@H](C)C3)c(Cl)c(-c3c(C)noc3C)n2)c1 [Example 148-3] | > 7.00
CNCC(O)COc1cccc(-c2nc(-c3c(C)noc3C)c(C)c(N3CCO[C@@H](CN(C)C(=O)OC)C3)n2)c1 (some centres unmarked) [Example 149-1a] | > 7.00
CNC[C@@H](O)COc1ccc(Cl)c(-c2nc(N[C@H]3CCO[C@@H](C)C3)c(Cl)c(-c3c(C)noc3C)n2)c1 [Example 149-3] | > 7.00
CNCC(O)COc1cccc(-c2nc(-c3c(C)noc3C)c(C)c(N3CCO[C@@H](CN(C)S(C)(=O)=O)C3)n2)c1 (some centres unmarked) [Example 150-1a] | > 7.00
CCOC(=O)N1CC[C@H](Nc2nc(-c3cc(OC[C@H](O)CNC)ccc3Cl)nc(-c3c(C)noc3C)c2C)C1 [Example 150-3] | > 7.00
CNCC(O)COc1cccc(-c2nc(-c3c(C)noc3C)c(C)c(N3CCO[C@H](CN(C)C)C3)n2)c1 (some centres unmarked) [Example 151-1a] | > 7.00
CCOC(=O)N1CC[C@H](Nc2nc(-c3cc(OC[C@H](O)CNC)ccc3Cl)nc(-c3c(C)noc3C)c2Cl)C1 [Example 151-3] | > 7.00
CC[C@@H]1CN(c2nc(-c3cccc(OCC(O)CNC)c3)nc(-c3c(C)noc3C)c2C)CCN1S(=O)(=O)CC (some centres unmarked) [Example 152-1a] | > 7.00
CNC[C@@H](O)COc1ccc(Cl)c(-c2nc(N[C@H]3CO[C@@H](C)C3)c(C)c(-c3c(C)noc3C)n2)c1 [Example 152-3] | > 7.00
CC[C@@H]1CN(c2nc(-c3cccc(OCC(O)CNC)c3)nc(-c3c(C)noc3C)c2C)CCN1S(C)(=O)=O (some centres unmarked) [Example 153-1a] | > 7.00
CCOC(=O)N1CCCC[C@@H]1CNc1nc(-c2cc(OC[C@H](O)CNC)ccc2Cl)nc(-c2c(C)noc2C)c1Cl [Example 153-3] | > 7.00
CC[C@H]1CN(c2nc(-c3cccc(OCC(O)CNC)c3)nc(-c3c(C)noc3C)c2C)CCN1S(=O)(=O)CC (some centres unmarked) [Example 154-1a] | > 7.00
CCOC(=O)N1CCCC[C@@H]1CNc1nc(-c2cc(OC[C@H](O)CNC)ccc2Cl)nc(-c2c(C)noc2C)c1C [Example 154-3] | > 7.00
CC[C@H]1CN(c2nc(-c3cccc(OCC(O)CNC)c3)nc(-c3c(C)noc3C)c2C)CCN1S(C)(=O)=O (some centres unmarked) [Example 155-1a] | > 7.00
CNC[C@@H](O)COc1ccc(Cl)c(-c2nc(N[C@@H]3CCO[C@H](C)C3)c(Cl)c(-c3c(C)noc3C)n2)c1 [Example 155-3] | > 7.00
